Laboratory results as given in article PMC10507666, “Trifluoromethylthiolation of Tryptophan and Tyrosine Derivatives: A Tool for Enhancing the Local Hydrophobicity of Peptides” (The Journal of Organic Chemistry, 2023).
Where a name gives a salt, the structure may show the parent alone. Residues, ends and D or L forms follow the SMILES beside them.

Experiments:
[1] = RP-HPLC retention time of EM-1 analogues (gradient); type: physicochemical; settings: RP-HPLC analysis, gradient 20% → 60% MeCN + 0.1% TFA in H2O + 0.1% TFA; retention time used as support for enhanced local hydrophobicity
[2] = Chromatographic hydrophobicity index (CHI/HI, ϕ0) determination by isocratic RP-HPLC at pH 7; type: physicochemical; settings: for Hydrophobicity index (HI): chromatographic, ϕ0 = –log k'w/S, pH 7, 50 mM ammonium acetate in mQ H2O / MeCN (6–22%), linear regression of four log k' values per peptide, UV 254 nm, Figure 1A; for Hydrophobicity index (HI) / k' (retention factor) / log(k'): isocratic RP-HPLC; for k' (retention factor) / log(k'): pH 7, UV 254 nm; for intercept log k'w at MeCN% = 0: linear regression of log k' versus MeCN content, pH 7, 50 mM ammonium acetate, Figure S5; for ΔHI (HI(CF3S)AA – HIAA): shift versus non-fluorinated tripeptide counterpart, chromatographic HI at pH 7
Text: The hydrophobicity index (HI) shift ΔHI (HI(CF3S)AA – HIAA) is an assessment of the contribution of the CF3S substituent to the increase in local hydrophobicity. This method, developed by Valkó et al.,[27] has already been successfully applied to measure the increased local hydrophobicity of peptides containing fluorinated AAs.[6b],[28] This short peptide sequence was chosen to prevent the formation of secondary structures that could affect hydrophobicity (see the Supporting Information, Chapter 6, for details). […] It is noteworthy that the replacement of the Tyr residue with its CF3S-Tyr analogue provides a higher local enhancement of the hydrophobicity (ΔHI = HI(CF3S)Tyr – HITyrca. 12 units) compared to the Trp series (ΔHI = HI(CF3S)Trp – HITrpca. 8 units).
6. Hydrophobicity index determination
The peptides were prepared according to the SPPS general procedure.
The chromatographic hydrophobicity index (CHI) was determined according to the protocols described previously. 17 Experiments were performed at pH 7 using 50 mM ammonium acetate in mQ H2O and MeCN as mobile phase. Peptides 9-12 were dissolved in 50 mM ammonium acetate before injection (25 µL injection volume). Retention factors (k') were determined at λ = 254 nm at various MeCN concentrations ranging from 6–22% (k' = (tR–t0) / […]). Then, log k' was expressed as a function of MeCN content and linear regression was applied to four values per peptide. The intercept log k'w at MeCN% = 0 and the slopes S were extracted from the linear fit for each peptide (correlation coefficient: R2 > 0.99). The isocratic hydrophobicity index (CHI) was calcd for each peptide using the following equation: […]
RP-HPLC analysis: >95% purity; tR = 10.42 min (7% MeCN in ammonium acetate buffer (pH […]
(1 picture or pasted object on this page, not shown here)
Table of retention times (tR), dead times (t0), and calculated log k' and CHI for peptides 9-12 at pH 7: […]
Peptide 12 (22% MeCN in 50 mM ammonium acetate buffer, pH 7, 1 mL/min):
Chromatographic hydrophobicity index C HI (pH 7) of peptides 9-12 […]
Figure S5: RP-HPLC determination of the chromatographic hydrophobicity index CHI for peptides 9-12 at pH 7 by linear regression of log k' values as a function of MeCN content.

[3] = CF3S-tyramine versus tyramine, from pKa values in H2O/D2O 90:10
Text: Figure 1 Biophysical property evaluation.
Finally, we assessed the influence of the CF3S group on the acidity of the vicinal phenol function in a simplified tyramine model carrying an ortho CF3S.

[4] = 15% MeCN in 50 mM ammonium acetate buffer
[5] = 17% MeCN in 50 mM ammonium acetate buffer
[6] = 18% MeCN in 50 mM ammonium acetate buffer
[7] = 19% MeCN in 50 mM ammonium acetate buffer
[8] = 6% MeCN in 50 mM ammonium acetate buffer
[9] = 7% MeCN in 50 mM ammonium acetate buffer
[10] = 8% MeCN in 50 mM ammonium acetate buffer
[11] = 9% MeCN in 50 mM ammonium acetate buffer
[12] = 20% MeCN in 50 mM ammonium acetate buffer
[13] = 21% MeCN in 50 mM ammonium acetate buffer
[14] = 22% MeCN in 50 mM ammonium acetate buffer
[15] = 12% MeCN in 50 mM ammonium acetate buffer
[16] = 13% MeCN in 50 mM ammonium acetate buffer
[17] = 14% MeCN in 50 mM ammonium acetate buffer

Molecule: NC(=O)[C@H](Cc1ccccc1)NC(=O)[C@H](Cc1c[nH]c2ccccc12)NC(=O)[C@@H]1CCCN1C(=O)[C@@H](N)Cc1ccc(O)cc1 [EM-1, endomorphin-1, reference compound]
- tR [1]: 8.1 min

Molecule: CC(C)C[C@H](NC(=O)[C@H](Cc1ccc(O)c(SC(F)(F)F)c1)NC(=O)[C@H](C)N)C(=O)O [compound 11, TFA·H2N-Ala-(CF3S)Tyr-Leu-OH]
- Hydrophobicity index (HI) [2]: 23.27
- k' (retention factor) [2, 4]: 9.198
- log(k') [2, 4]: 0.964
- k' (retention factor) [2, 5]: 5.352
- log(k') [2, 5]: 0.729
- k' (retention factor) [2, 6]: 4.091
- log(k') [2, 6]: 0.612
- k' (retention factor) [2, 7]: 3.149
- log(k') [2, 7]: 0.498
- intercept log k'w at MeCN% = 0 [2]: 2.7107
- ΔHI (HI(CF3S)AA – HIAA) [2]: ca. 12 units

Molecule: NC(=O)[C@H](Cc1ccccc1)NC(=O)[C@H](Cc1c[nH]c2ccccc12)NC(=O)[C@@H]1CCCN1C(=O)[C@@H](N)Cc1ccc(O)c(SC(F)(F)F)c1 [(CF3S)Tyr-EM-1]
- tR [1]: 11.6 min

Molecule: CF3S-tyramine [6e]
- increase of the acidity of the vicinal hydroxyl group [3]: 100 fold

Molecule: NC(=O)[C@H](Cc1ccccc1)NC(=O)[C@H](Cc1c(SC(F)(F)F)[nH]c2ccccc12)NC(=O)[C@@H]1CCCN1C(=O)[C@@H](N)Cc1ccc(O)cc1 [(CF3S)Trp-EM-1]
- tR [1]: 10.9 min

Molecule: CC(C)C[C@H](NC(=O)[C@H](Cc1ccc(O)cc1)NC(=O)[C@H](C)N)C(=O)O [compound 9, TFA·H2N-L-Ala-L-Tyr-L-Leu-OH] (H-Ala-Tyr-Leu-OH)
- Hydrophobicity index (HI) [2]: 11.37
- k' (retention factor) [2, 8]: 6.432
- log(k') [2, 8]: 0.808
- k' (retention factor) [2, 9]: 4.433
- log(k') [2, 9]: 0.647
- k' (retention factor) [2, 10]: 3.166
- log(k') [2, 10]: 0.501
- k' (retention factor) [2, 11]: 2.284
- log(k') [2, 11]: 0.359
- intercept log k'w at MeCN% = 0 [2]: 1.6998

Molecule: CC(C)C[C@H](NC(=O)[C@H](Cc1c(SC(F)(F)F)[nH]c2ccccc12)NC(=O)[C@H](C)N)C(=O)O [compound 12, TFA·H2N-Ala-(CF3S)Trp-Leu-OH]
- Hydrophobicity index (HI) [2]: 27.15
- k' (retention factor) [2, 7]: 9.031
- log(k') [2, 7]: 0.956
- k' (retention factor) [2, 12]: 6.844
- log(k') [2, 12]: 0.835
- k' (retention factor) [2, 13]: 5.211
- log(k') [2, 13]: 0.717
- k' (retention factor) [2, 14]: 4.025
- log(k') [2, 14]: 0.605
- intercept log k'w at MeCN% = 0 [2]: 3.1793
- ΔHI (HI(CF3S)AA – HIAA) [2]: ca. 8 units

Molecule: CC(C)C[C@H](NC(=O)[C@H](Cc1c[nH]c2ccccc12)NC(=O)[C@H](C)N)C(=O)O [compound 10, TFA·H2N-Ala-Trp-Leu-OH] (H-Ala-Trp-Leu-OH)
- Hydrophobicity index (HI) [2]: 19.13
- k' (retention factor) [2, 15]: 7.397
- log(k') [2, 15]: 0.869
- k' (retention factor) [2, 16]: 5.507
- log(k') [2, 16]: 0.741
- k' (retention factor) [2, 17]: 4.188
- log(k') [2, 17]: 0.622
- k' (retention factor) [2, 4]: 3.191
- log(k') [2, 4]: 0.504
- intercept log k'w at MeCN% = 0 [2]: 2.3234
